Measurements taken from EP0305843A2, “Antiviral agent” (BAYER AG, priority 1987, dated 1989).

Tests used:
Visna-Virus = experiment: Visna virus test in cell culture (inhibition of virus-induced cytopathic effect, method of Narayan et al.); assay type: cell-based; settings: Visna-virus-infected cell cultures treated with the compound at non-cytotoxic concentrations
Excerpt: In Zellkulturen, die mit Visna-Virus infiziert sind, treten 5 bis 10 Tage nach der Infektion ausgeprägte virusinduzierte, zytopathische Effekte auf. Durch Behandlung der infizierten Zellkulturen mit 9-(2,3-Anhydro-β-D-lyxofuranosyl)adenin konnte das Auftreten dieser zytopathischen Effekte verhindert werden. Der Visna-Virus-Test wurde nach der Methode von O. Narayan et al., Journal of Infectious Dieseases 135, 5, 1977, 800-806 durchgeführt. Dazu wurde 9-(2,3-Anhydro-β-D-lyxofuranosyl)adenin - in Produktionsmedium gelöst - in nicht zytotoxischen Konzentrationen in 96er Microtiterplatten verdünnt. Anschließend wurden Fibroblastenzellen vom Schaf (5 x 10⁴ Zellen pro Napf) - in Produktionsmedium suspendiert - zu jedem Näpfchen zugeführt. Jedes Näpfchen erhielt dann 50 µl einer Visna-Viruslösung mit einer Titer von ca. 2,5 x 10⁴ TCID₅₀ (TCID = tissue culture infectious dose). Diese Virusdosis entspricht einer MOI (Multiplizität der Infektion) von ca. 0,05.
Unter diesen Infektionsbedingungen resultierte zwischen Tag 5 und Tag 10 in einer Infektionskontrolle ohne Substanz ein virusinduzierter, zytopathischer Effekt. Die infizierten und behandelten Zellen und die Kontrollzellen wurden 7 Tage bei 37°C, 5 % CO₂ inkubiert. […]

T-Zellen = experiment: Further studies: influence on the function of T cells; assay type: cell-based; settings: no method or concentration given

Funktion von T-Zellen (T-Zellen): nicht beeinflußt
SMILES: Nc1ncnc2c1ncn2[C@@H]1O[C@H](CO)[C@@H]2O[C@@H]21 [9-(2,3-Anhydro-β-D-lyxofuranosyl)adenin]
Auftreten der virusinduzierten zytopathischen Effekte (Visna-Virus): verhindert
